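Where inhibition never reached the appropriate level, the endpoint shown equals the highest concentration tested. Otherwise, values were interpolated linearly from a five-concentration, 48-hour dose response in 96-well plates. At the GI50, growth is halved. TGI denotes the concentration required for complete inhibition of growth.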
Experiments:
Experiment in all cases: NCI tumour cell line growth inhibition, 48 h
SN12C renal = test system: SN12C renal
SK-MEL-28 melanoma = test system: SK-MEL-28 melanoma
UACC-257 melanoma = test system: UACC-257 melanoma
CCRF-CEM leukemia = test system: CCRF-CEM leukemia
OVCAR-4 ovarian = test system: OVCAR-4 ovarian
MDA-MB-231 breast = test system: MDA-MB-231 breast
SK-MEL-2 melanoma = test system: SK-MEL-2 melanoma
BT-549 breast = test system: BT-549 breast
DU-145 prostate = test system: DU-145 prostate
HCC-2998 colon = test system: HCC-2998 colon
OVCAR-3 ovarian = test system: OVCAR-3 ovarian
SR leukemia = test system: SR leukemia
MOLT-4 leukemia = test system: MOLT-4 leukemia
ACHN renal = test system: ACHN renal
HOP-92 NSCLC = test system: HOP-92 NSCLC
SW-620 colon = test system: SW-620 colon
SNB-19 CNS = test system: SNB-19 CNS
786-0 renal = test system: 786-0 renal
HS 578T breast = test system: HS 578T breast
MDA-MB-435 = test system: MDA-MB-435
A498 renal = test system: A498 renal
NCI-H460 lung = test system: NCI-H460 lung
SF-268 CNS = test system: SF-268 CNS
OVCAR-8 ovarian = test system: OVCAR-8 ovarian
HCT-15 colon = test system: HCT-15 colon
HCT-116 colon = test system: HCT-116 colon
A549 NSCLC = test system: A549 NSCLC
RPMI-8226 leukemia = test system: RPMI-8226 leukemia
SK-MEL-5 melanoma = test system: SK-MEL-5 melanoma
MCF7 breast = test system: MCF7 breast
U251 CNS = test system: U251 CNS
SNB-75 CNS = test system: SNB-75 CNS
SF-295 CNS = test system: SF-295 CNS
NCI-H522 lung = test system: NCI-H522 lung
T-47D breast = test system: T-47D breast
HL-60(TB) leukemia = test system: HL-60(TB) leukemia
CAKI-1 renal = test system: CAKI-1 renal
KM12 colon = test system: KM12 colon
NCI/ADR-RES ovarian = test system: NCI/ADR-RES ovarian
UACC-62 melanoma = test system: UACC-62 melanoma
EKVX NSCLC = test system: EKVX NSCLC
PC-3 prostate = test system: PC-3 prostate
RXF 393 renal = test system: RXF 393 renal
SK-OV-3 ovarian = test system: SK-OV-3 ovarian
M14 melanoma = test system: M14 melanoma
MALME-3M melanoma = test system: MALME-3M melanoma
TK-10 renal = test system: TK-10 renal
NCI-H23 lung = test system: NCI-H23 lung
NCI-H226 lung = test system: NCI-H226 lung
UO-31 renal = test system: UO-31 renal
HOP-62 NSCLC = test system: HOP-62 NSCLC
K-562 leukemia = test system: K-562 leukemia
COLO 205 colon = test system: COLO 205 colon
IGROV1 ovarian = test system: IGROV1 ovarian
LOX IMVI melanoma = test system: LOX IMVI melanoma
HT29 colon = test system: HT29 colon
SF-539 CNS = test system: SF-539 CNS

Compound: O=C1NCCS(=O)(=O)/C1=C\C=C\c1cccc(C(F)(F)F)c1
- GI50 (SN12C renal): 3.08 µM
- TGI (SN12C renal): 12 µM
- GI50 (SK-MEL-28 melanoma): 2.92 µM
- TGI (SK-MEL-28 melanoma): 11.3 µM
- GI50 (UACC-257 melanoma): 1.83 µM
- TGI (UACC-257 melanoma): 9.22 µM
- GI50 (CCRF-CEM leukemia): 2.13 µM
- TGI (CCRF-CEM leukemia): 10.7 µM
- GI50 (OVCAR-4 ovarian): 4.84 µM
- TGI (OVCAR-4 ovarian): 19.2 µM
- GI50 (MDA-MB-231 breast): 4.21 µM
- TGI (MDA-MB-231 breast): 15.9 µM
- GI50 (SK-MEL-2 melanoma): 2.62 µM
- TGI (SK-MEL-2 melanoma): 9.77 µM
- GI50 (BT-549 breast): 2.4 µM
- TGI (BT-549 breast): 8.54 µM
- GI50 (DU-145 prostate): 2.96 µM
- TGI (DU-145 prostate): 13.6 µM
- GI50 (HCC-2998 colon): 1.93 µM
- TGI (HCC-2998 colon): 3.72 µM
- GI50 (OVCAR-3 ovarian): 2.85 µM
- TGI (OVCAR-3 ovarian): 11.4 µM
- GI50 (SR leukemia): 0.539 µM
- TGI (SR leukemia): > 100 µM
- GI50 (MOLT-4 leukemia): 2.05 µM
- TGI (MOLT-4 leukemia): 9.54 µM
- GI50 (ACHN renal): 1.99 µM
- TGI (ACHN renal): 4.52 µM
- GI50 (HOP-92 NSCLC): 5.09 µM
- TGI (HOP-92 NSCLC): 16.4 µM
- GI50 (SW-620 colon): 2.65 µM
- TGI (SW-620 colon): 7.56 µM
- GI50 (SNB-19 CNS): 2.62 µM
- TGI (SNB-19 CNS): 10.7 µM
- GI50 (786-0 renal): 2.64 µM
- TGI (786-0 renal): 7.67 µM
- GI50 (HS 578T breast): 6.81 µM
- TGI (HS 578T breast): 30.7 µM
- GI50 (MDA-MB-435): 1.81 µM
- TGI (MDA-MB-435): 6.47 µM
- GI50 (A498 renal): 2.51 µM
- TGI (A498 renal): 5.31 µM
- GI50 (NCI-H460 lung): 2.73 µM
- TGI (NCI-H460 lung): 7.68 µM
- GI50 (SF-268 CNS): 3.28 µM
- TGI (SF-268 CNS): 15 µM
- GI50 (OVCAR-8 ovarian): 3.46 µM
- TGI (OVCAR-8 ovarian): 16.8 µM
- GI50 (HCT-15 colon): 1.56 µM
- TGI (HCT-15 colon): 5.29 µM
- GI50 (HCT-116 colon): 1.41 µM
- TGI (HCT-116 colon): 3.72 µM
- GI50 (A549 NSCLC): 2.98 µM
- TGI (A549 NSCLC): 11.6 µM
- GI50 (RPMI-8226 leukemia): 2.19 µM
- TGI (RPMI-8226 leukemia): 8.31 µM
- GI50 (SK-MEL-5 melanoma): 1.71 µM
- TGI (SK-MEL-5 melanoma): 3.36 µM
- GI50 (MCF7 breast): 0.188 µM
- TGI (MCF7 breast): 11 µM
- GI50 (U251 CNS): 1.67 µM
- TGI (U251 CNS): 3.86 µM
- GI50 (SNB-75 CNS): 4.36 µM
- TGI (SNB-75 CNS): 20.1 µM
- GI50 (SF-295 CNS): 3.71 µM
- TGI (SF-295 CNS): 15 µM
- GI50 (NCI-H522 lung): 1.43 µM
- TGI (NCI-H522 lung): 3.19 µM
- GI50 (T-47D breast): 3.51 µM
- TGI (T-47D breast): 17.3 µM
- GI50 (HL-60(TB) leukemia): 2.4 µM
- TGI (HL-60(TB) leukemia): 7.26 µM
- GI50 (CAKI-1 renal): 2.22 µM
- TGI (CAKI-1 renal): 10.2 µM
- GI50 (KM12 colon): 2.36 µM
- TGI (KM12 colon): 6.67 µM
- GI50 (NCI/ADR-RES ovarian): 2.81 µM
- TGI (NCI/ADR-RES ovarian): 14.2 µM
- GI50 (UACC-62 melanoma): 1.46 µM
- TGI (UACC-62 melanoma): 3.89 µM
- GI50 (EKVX NSCLC): 4.31 µM
- TGI (EKVX NSCLC): 16.5 µM
- GI50 (PC-3 prostate): 2.79 µM
- TGI (PC-3 prostate): 11.4 µM
- GI50 (RXF 393 renal): 2.52 µM
- TGI (RXF 393 renal): 5.37 µM
- GI50 (SK-OV-3 ovarian): 5.83 µM
- TGI (SK-OV-3 ovarian): 18.3 µM
- GI50 (M14 melanoma): 1.89 µM
- TGI (M14 melanoma): 7.24 µM
- GI50 (MALME-3M melanoma): 4.02 µM
- TGI (MALME-3M melanoma): 17.2 µM
- GI50 (TK-10 renal): 3.95 µM
- TGI (TK-10 renal): 13 µM
- GI50 (NCI-H23 lung): 1.94 µM
- TGI (NCI-H23 lung): 8.02 µM
- GI50 (NCI-H226 lung): 2.75 µM
- TGI (NCI-H226 lung): 7.65 µM
- GI50 (UO-31 renal): 1.76 µM
- TGI (UO-31 renal): 3.79 µM
- GI50 (HOP-62 NSCLC): 3.72 µM
- TGI (HOP-62 NSCLC): 12.7 µM
- GI50 (K-562 leukemia): 2.48 µM
- TGI (K-562 leukemia): 25.7 µM
- GI50 (COLO 205 colon): 2.31 µM
- TGI (COLO 205 colon): 5.2 µM
- GI50 (IGROV1 ovarian): 2.61 µM
- TGI (IGROV1 ovarian): 11.8 µM
- GI50 (LOX IMVI melanoma): 1.23 µM
- TGI (LOX IMVI melanoma): 2.61 µM
- GI50 (HT29 colon): 2.3 µM
- TGI (HT29 colon): 5.38 µM
- GI50 (SF-539 CNS): 2.83 µM
- TGI (SF-539 CNS): 10.1 µM

From PubChem BioAssay (NCI)
